Source: paper PMC8472139, “Neuroprotective Effect of a Novel ATP-Synthase Inhibitor Bedaquiline in Cerebral Ischemia-Reperfusion Injury” (International Journal of Molecular Sciences, 2021)

Target: T1, F1F0-ATP synthase (ATPase, complex V) (Rattus norvegicus, UniProt P05504+Q06645)
T1 construct: gene Atp5mc1; native complex from brain mitochondria (male Wistar rat), immunocaptured in microplate wells (Abcam ab109714 kit); mature c subunit is identical from Atp5mc1/Atp5mc2/Atp5mc3; with ATP synthase F(1) complex subunit alpha, mitochondrial; ATP synthase F(1) complex catalytic subunit beta, mitochondrial; ATP synthase F(1) complex subunit gamma, mitochondrial; ATP synthase F(1) complex subunit delta, mitochondrial; ATP synthase F(1) complex subunit epsilon, mitochondrial; ATP synthase peripheral stalk subunit OSCP, mitochondrial; ATP synthase peripheral stalk-membrane subunit b, mitochondrial
Experiment: ATP hydrolysis coupled to NADH oxidation, absorbance […] nm, immunocapture kit
Type: biochemical

inhibition at 5 µM: ~50%
SMILES: COc1nc2ccc(Br)cc2cc1[C@@H](c1ccccc1)[C@@](O)(CCN(C)C)c1cccc2ccccc12 [BDQ, Bedaquiline]
